One data set deals with MMP9 (Homo sapiens, UniProt P14780). Nature of the data set: Off-target metalloprotease inhibition, MMP9. The settings on record: read-out: Residual activity MMP9. Type of data set: biochemical.
The next data set deals with ADAM17 (Homo sapiens, UniProt P78536). The data set is described as follows: Off-target metalloprotease inhibition, ADAM17. Type of data set: biochemical. The settings on record: read-out: Residual activity ADAM17.
The next data set has as its target T1, human meprin α (Homo sapiens, UniProt Q16819).
T1 sequence (Q16819 66-746): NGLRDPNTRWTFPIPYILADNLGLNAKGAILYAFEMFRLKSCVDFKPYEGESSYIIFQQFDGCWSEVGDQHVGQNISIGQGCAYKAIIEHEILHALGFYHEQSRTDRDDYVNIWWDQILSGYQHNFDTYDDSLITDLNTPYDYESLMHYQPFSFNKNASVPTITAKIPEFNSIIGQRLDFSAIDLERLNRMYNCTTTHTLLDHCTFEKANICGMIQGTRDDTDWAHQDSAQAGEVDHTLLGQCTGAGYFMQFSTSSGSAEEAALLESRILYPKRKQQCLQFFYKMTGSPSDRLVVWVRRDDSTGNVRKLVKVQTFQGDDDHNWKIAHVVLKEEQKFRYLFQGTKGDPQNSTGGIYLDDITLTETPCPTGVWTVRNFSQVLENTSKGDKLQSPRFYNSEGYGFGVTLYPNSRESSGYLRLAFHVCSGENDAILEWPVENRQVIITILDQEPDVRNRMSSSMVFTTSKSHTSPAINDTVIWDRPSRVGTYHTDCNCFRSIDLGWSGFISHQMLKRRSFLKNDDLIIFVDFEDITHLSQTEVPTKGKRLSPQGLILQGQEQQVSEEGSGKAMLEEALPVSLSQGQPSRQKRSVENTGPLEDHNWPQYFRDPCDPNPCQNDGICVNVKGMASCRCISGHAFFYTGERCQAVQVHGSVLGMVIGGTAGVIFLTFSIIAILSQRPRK
The format is biochemical. The settings on record: for Ki: Ki(app) Meprin α, geometric mean of three independent experiments with standard deviation factor; for SF: selectivity factor (Ki(app) meprin β/Ki(app) meprin α): meprin α over meprin β.

Data set [1] can be described thus: Cell viability assay. The settings on record: human, Hep-G2 cells. The format is cell-based.
In a further data set the test system is MMPs and ADAMs. Nature of the data set: Off-target metalloprotease panel. The format is biochemical, human. The settings on record: 10 µM inhibitor concentration.
The target of the next data set is T2, human meprin β (Homo sapiens, UniProt Q16820).
T2 sequence (Q16820 62-701): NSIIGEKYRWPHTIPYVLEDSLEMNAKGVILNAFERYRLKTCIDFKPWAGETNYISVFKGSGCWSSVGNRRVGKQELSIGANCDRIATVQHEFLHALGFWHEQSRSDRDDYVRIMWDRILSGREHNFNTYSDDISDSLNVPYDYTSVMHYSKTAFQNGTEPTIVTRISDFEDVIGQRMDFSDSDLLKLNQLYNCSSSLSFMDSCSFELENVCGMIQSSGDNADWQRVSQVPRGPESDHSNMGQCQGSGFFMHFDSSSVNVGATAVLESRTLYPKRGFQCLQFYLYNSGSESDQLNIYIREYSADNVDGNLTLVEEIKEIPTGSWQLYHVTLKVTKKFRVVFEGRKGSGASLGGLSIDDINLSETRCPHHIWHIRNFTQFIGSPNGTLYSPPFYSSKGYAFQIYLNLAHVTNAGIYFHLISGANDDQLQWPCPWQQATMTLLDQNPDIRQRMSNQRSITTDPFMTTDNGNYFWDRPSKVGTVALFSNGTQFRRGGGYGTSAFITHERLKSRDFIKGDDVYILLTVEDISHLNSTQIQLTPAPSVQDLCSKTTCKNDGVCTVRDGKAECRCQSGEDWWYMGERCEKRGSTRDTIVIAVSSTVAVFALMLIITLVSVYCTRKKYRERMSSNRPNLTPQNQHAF
Type of data set: biochemical. The settings on record: for Ki: Ki(app) Meprin β, geometric mean of three independent experiments with standard deviation factor; for fold increase in potency against meprin β: compared to 21e.

A short description of data set [2]: Cell viability assay. The settings on record: human, SH-SY5Y cells. The format is cell-based.
Another data set deals with T3, ADAM10 (Homo sapiens, UniProt O14672).
T3 sequence (O14672 214-748): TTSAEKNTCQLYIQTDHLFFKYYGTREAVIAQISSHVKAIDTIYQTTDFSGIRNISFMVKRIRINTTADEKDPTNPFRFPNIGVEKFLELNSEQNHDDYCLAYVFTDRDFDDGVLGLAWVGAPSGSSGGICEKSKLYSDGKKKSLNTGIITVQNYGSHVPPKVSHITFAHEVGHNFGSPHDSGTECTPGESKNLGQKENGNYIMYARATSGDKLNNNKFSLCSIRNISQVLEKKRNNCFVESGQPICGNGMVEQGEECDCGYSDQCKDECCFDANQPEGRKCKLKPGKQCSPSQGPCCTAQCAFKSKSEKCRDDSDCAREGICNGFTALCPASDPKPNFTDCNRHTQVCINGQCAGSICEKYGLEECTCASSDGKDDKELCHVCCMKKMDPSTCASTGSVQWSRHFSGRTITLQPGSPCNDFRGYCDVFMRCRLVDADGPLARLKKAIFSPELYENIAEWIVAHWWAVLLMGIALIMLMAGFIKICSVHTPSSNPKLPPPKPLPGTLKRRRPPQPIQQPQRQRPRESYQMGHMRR
Nature of the data set: Off-target metalloprotease inhibition, ADAM10. Type of data set: biochemical. The settings on record: read-out: Residual activity ADAM10.

In the next data set the target is T4, MMP2 (Homo sapiens, UniProt P08253).
T4 sequence (P08253 110-660): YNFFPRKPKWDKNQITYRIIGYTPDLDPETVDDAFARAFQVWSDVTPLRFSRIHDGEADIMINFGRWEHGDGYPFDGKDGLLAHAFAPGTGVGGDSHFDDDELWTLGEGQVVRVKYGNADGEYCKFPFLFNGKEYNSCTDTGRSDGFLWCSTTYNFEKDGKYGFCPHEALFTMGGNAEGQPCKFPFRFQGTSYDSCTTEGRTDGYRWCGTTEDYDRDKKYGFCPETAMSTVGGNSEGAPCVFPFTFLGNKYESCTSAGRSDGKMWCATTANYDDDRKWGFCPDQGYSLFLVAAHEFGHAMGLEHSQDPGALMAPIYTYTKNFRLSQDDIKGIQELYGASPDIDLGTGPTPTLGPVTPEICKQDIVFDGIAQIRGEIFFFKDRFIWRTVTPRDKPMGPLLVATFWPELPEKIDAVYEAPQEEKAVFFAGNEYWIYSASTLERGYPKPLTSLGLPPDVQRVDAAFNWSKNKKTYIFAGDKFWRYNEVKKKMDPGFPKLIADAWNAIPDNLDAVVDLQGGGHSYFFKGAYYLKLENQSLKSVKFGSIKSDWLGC
Nature of the data set: Off-target metalloprotease inhibition, MMP2. Type of data set: biochemical. The settings on record: read-out: Residual activity MMP2.

In a further data set the target is MMP13 (Homo sapiens, UniProt P45452). Nature of the data set: Off-target metalloprotease inhibition, MMP13. The format is biochemical. The settings on record: read-out: Residual activity MMP13.

Sequence of ADAM17 (P78536 215-824): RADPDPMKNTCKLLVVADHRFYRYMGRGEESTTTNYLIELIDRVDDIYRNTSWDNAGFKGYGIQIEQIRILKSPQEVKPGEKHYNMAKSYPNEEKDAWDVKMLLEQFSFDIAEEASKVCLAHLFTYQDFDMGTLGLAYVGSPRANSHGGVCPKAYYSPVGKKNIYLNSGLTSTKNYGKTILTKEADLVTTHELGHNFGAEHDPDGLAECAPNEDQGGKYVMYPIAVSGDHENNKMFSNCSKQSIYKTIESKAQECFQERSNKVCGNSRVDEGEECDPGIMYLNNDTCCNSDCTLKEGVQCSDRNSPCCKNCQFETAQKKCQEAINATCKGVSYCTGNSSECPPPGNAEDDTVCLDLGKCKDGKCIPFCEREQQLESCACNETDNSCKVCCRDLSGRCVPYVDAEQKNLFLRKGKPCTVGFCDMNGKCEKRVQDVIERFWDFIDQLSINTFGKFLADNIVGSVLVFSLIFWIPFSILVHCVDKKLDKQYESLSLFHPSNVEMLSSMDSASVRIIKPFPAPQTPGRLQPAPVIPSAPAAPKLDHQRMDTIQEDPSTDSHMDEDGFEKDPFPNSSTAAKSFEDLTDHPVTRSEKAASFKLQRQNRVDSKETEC
Sequence of MMP9 (P14780 107-707 limits assumed): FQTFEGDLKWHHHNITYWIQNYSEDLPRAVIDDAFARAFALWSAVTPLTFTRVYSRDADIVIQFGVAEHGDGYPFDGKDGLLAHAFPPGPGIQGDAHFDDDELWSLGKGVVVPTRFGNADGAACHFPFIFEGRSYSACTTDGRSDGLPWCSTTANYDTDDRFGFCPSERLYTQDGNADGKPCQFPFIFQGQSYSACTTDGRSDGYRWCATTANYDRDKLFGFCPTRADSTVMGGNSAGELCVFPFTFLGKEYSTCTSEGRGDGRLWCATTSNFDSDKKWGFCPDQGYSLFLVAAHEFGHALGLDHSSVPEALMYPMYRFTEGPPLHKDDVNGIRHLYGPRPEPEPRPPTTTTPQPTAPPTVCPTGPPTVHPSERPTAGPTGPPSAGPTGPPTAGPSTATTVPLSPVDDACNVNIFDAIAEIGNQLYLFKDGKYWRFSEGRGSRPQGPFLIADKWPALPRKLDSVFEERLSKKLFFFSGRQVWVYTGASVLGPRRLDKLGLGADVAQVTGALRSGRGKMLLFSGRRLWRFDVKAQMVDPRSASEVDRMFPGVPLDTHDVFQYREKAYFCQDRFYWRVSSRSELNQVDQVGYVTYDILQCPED

As to `O=C(Cc1c(-c2cccc(C(=O)O)c2)n[nH]c1-c1cc(F)c(O)c(Cl)c1)NO` [16j, 3-[5-(3-Chloro-5-fluoro-4-hydroxy-phenyl)-4-[2-(hydroxyamino)-2-oxo-ethyl]-1H-pyrazol-3-yl]benzoic acid], the remaining activity at 10 µM on MMP9 worked out at 94%; at ADAM17 it was 99%; on ADAM10, 90%; at MMP2, 95%; at MMP13, 105%. In addition, the results for the Ki at human meprin α and at human meprin β were 0.1 nM and 0.2 nM, respectively. The “SF: selectivity factor (Ki(app) meprin β/Ki(app) meprin α)” value (“SF: selectivity factor” for short) on human meprin α came to 2. For the same molecule, the viability (as a rule, a read-out of living cells in per cent, often relative to untreated cells) at 24 h, 30 µM in “Cell viability assay [1]” turned out to be 98%; in the data set “Cell viability assay [2]” it was 110%. Also, in the data set on MMPs and ADAMs, the “residual activities of the respective MMPs and ADAMs” value is recorded as “above 90%”.
Turning to `O=C(Cc1c(-c2ccccc2)nn(Cc2ccc(C(=O)O)cc2)c1-c1ccccc1)NO` [21h, 4-[[4-[2-(Hydroxyamino)-2-oxo-ethyl]-3,5-diphenyl-pyrazol-1-yl]methyl]benzoic acid], the remaining activity at 10 µM on MMP9 was determined as 80%; at ADAM17 it was 67%; at ADAM10, 91%; on MMP2 it was 85%; at MMP13 it was 86%. For the same molecule, the results for the Ki at human meprin α and on human meprin β were 0.4 nM and 9.4 nM, respectively. Further, the “SF: selectivity factor” value at human meprin α amounted to 24. Besides, the viability at 24 h, 30 µM in the data set “Cell viability assay [1]” was 103%; in “Cell viability assay [2]”, 88%. Moreover, the “fold increase in potency against meprin β” value at human meprin β is on record as 30 fold.
`O=C(CCc1c(-c2ccccc2)nn(Cc2ccc(Cl)c(O)c2F)c1-c1ccccc1)NO` [compound 22, 3-[1-[(4-Chloro-2-fluoro-3-hydroxy-phenyl)methyl]-3,5-diphenyl-pyrazol-4-yl]propane-hydroxamic acid]: the remaining activity at 10 µM at MMP9 was found to be 100%; on ADAM17 it was 90%; on ADAM10 it was 117%; on MMP2 it was 102%; at MMP13 it was 98%. Besides, the “SF: selectivity factor” value at human meprin α is 7892. Moreover, the figures for the viability at 24 h, 30 µM in “Cell viability assay [1]” and in “Cell viability assay [2]” were 100% and 98%, respectively. For the same molecule, on human meprin β (compared to 21i), the “activity against meprin β dropped by factor” value is reported as approximately 120.
On to `O=C(Cc1c(-c2ccccc2)nn(Cc2cccc(C(=O)O)c2)c1-c1ccccc1)NO` [21g, 3-[[4-[2-(Hydroxyamino)-2-oxo-ethyl]-3,5-diphenyl-pyrazol-1-yl]methyl]benzoic acid], for which the remaining activity at 10 µM at MMP9 came out at 83%; at ADAM17, 84%; on ADAM10 it was 92%; on MMP2, 89%; at MMP13, 83%. For the same molecule, the Ki at human meprin α is 0.3 nM; at human meprin β it was 10.6 nM. For the same molecule, the “fold improved activity against meprin α” value at human meprin α (compared to 21e) was found to be 3 fold. The “SF: selectivity factor” value on human meprin α is 35. Besides, the viability at 24 h, 30 µM in “Cell viability assay [1]” came out at 99%; in the data set “Cell viability assay [2]” it was 85%. Moreover, the “fold increase in potency against meprin β” value on human meprin β worked out at 30 fold.
In the case of `O=C(Cc1c(-c2ccccc2)nn(Cc2ccc(Cl)c(O)c2F)c1-c1ccccc1)NO` [21i, 2-[1-[(4-Chloro-2-fluoro-3-hydroxy-phenyl)methyl]-3,5-diphenyl-pyrazol-4-yl]ethane-hydroxamic acid], the remaining activity at 10 µM at MMP9 came out at 70%; on ADAM17, 72%; on ADAM10 it was 85%; on MMP2, 69%; at MMP13 it was 84%. In addition, the “SF: selectivity factor” value on human meprin α stood at 116. Further, the viability at 24 h, 30 µM worked out at 107% in “Cell viability assay [1]” and 79% in “Cell viability assay [2]”. This molecule also returned a Ki on human meprin β of 9.3 nM.
In the case of `O=C(Cc1c(-c2cc(F)c(O)c(Cl)c2)n[nH]c1-c1ccccc1)NO` [14m, 2-[3-(3-Chloro-5-fluoro-4-hydroxyphenyl)-5-phenyl-1H-pyrazol-4-yl]ethanehydroxamic acid], the remaining activity at 10 µM at MMP9 stood at 86%; at ADAM17, 68%; on ADAM10 it was 104%; on MMP2, 66%; at MMP13, 88%. For the same molecule, the Ki was found to be 0.1 nM at human meprin α and 0.4 nM at human meprin β. For the same molecule, the “SF: selectivity factor” value at human meprin α turned out to be 3. Besides, the viability at 24 h, 30 µM worked out at 103% in “Cell viability assay [1]” and 86% in the data set “Cell viability assay [2]”.

The values are drawn from PMC9870012 (Journal of Enzyme Inhibition and Medicinal Chemistry, 2023).
